{
  "source": "paper PMC6178282",
  "about": "“Comparative cell biological study of in vitro antitumor and antimetastatic activity on melanoma cells of GnRH-III-containing conjugates modified with short-chain fatty acids” (Beilstein Journal of Organic Chemistry, 2018)",
  "key": {"A2058 cells": {"test_system": "A2058 cells", "experiment": "Inhibition assay for phosphatidylinositol 3-kinase (pretreatment with wortmannin or LY294002, alamarBlue viability)", "type": "cell-based, human", "conditions": "then compound 10^−5 M for 48 h, from averages of 6 parallels", "description": "The association of PI3K activation with the antitumor activity of the conjugates was determined by pretreating the cells with PI3K inhibitors (wortmannin – W and LY294002 – LY). The antitumor effect of the conjugates and Dau on the cells pretreated with PI3K inhibitors or with DMSO (solvent of the inhibitors) was assessed by an alamarBlue-assay after 48 h of incubation. The results of the PI3K-assay were given by calculating the inhibition index as the ratio of the viability of the pretreated and control (DMSO-treated) cell populations being incubated with medium or conjugates (10^−5 M). […]\nwas measured with LS-50B Luminescence Spectrometer (Perkin Elmer Ltd., Buckinghamshire United Kingdom) by using λ = 560 nm for excitation and λ = 590 nm for detection of the emitted light.\nEach data represents the mathematical average of six parallels. The decrease in the fluorescence intensity caused by the different treatments was normalized to the identical control and this value was given as ‘Viability’ in percent. […]\nA2058 cells were prepared in 96-well plates as it was aforementioned in ‘Cell proliferation and cytotoxicity measurement’ section. […] The number of viable cells was determined by the alamarBlue-assay as it was described in ‘Cell proliferation and cytotoxicity measurement’ chapter. To analyze the effects of inhibitors on the actions of conjugates, the inhibition index was calculated by […]"}, "A2058 melanoma cells": {"test_system": "A2058 melanoma cells", "experiment": "Apoptosis assay, Vitabright-48 thiol staining, NucleoCounter NC-250 image cytometer", "type": "cell-based, human", "conditions": "10^−5 M, 24 h, NucleoCounter NC-250, average of two parallels ± S.D., control 8.7 ± 0.72", "description": "The pro-apoptotic effects of conjugates and Dau at 10^−5 M concentration was studied after 24 h incubation by flow cytometry using FITC-annexin V (Sony Biotechnology, Weybridge, UK) and a novel image cytometer (NucleoCounter® NC-250^TM, ChemoMetec A/S, Lillerød, Denmark) using Vitabright-48™ (ChemoMetec A/S, Lillerød, Denmark), a cell permeable dye that reacts with thiol groups to form a fluorescent product. […]\nnormalizing the viability of conjugate-treated cells with that of the control cells, and these indices of groups pretreated with inhibitors or DMSO were statistically compared.\nThe apoptotic effect of conjugates and Dau was determined by a FACSCalibur flow cytometer (Becton Dickinson, San Jose, CA, USA) after staining with annexin V-FITC (Sony Biotechnology, Weybridge, UK) and NucleoCounter® NC-250™ cell analyzer (ChemoMetec A/S, Lillerød, Denmark) using Vitabright-48™, a cell-permeable fluorescent dye (ChemoMetec A/S, Lillerød, Denmark). […]\nThe cells were dissociated by a TrypLE reagent (Thermo Fisher Scientific, Waltham, MA, USA) composed of recombinant enzyme protecting the cell’s surface proteins and it was followed by a centrifugation and a washing step with PBS. […] Before labeling with annexin V-FITC, the cells were measured by a flow cytometer for controlling the autofluorescence of cells in case of each treatment group. […]"}},
  "data": [
    {"smiles": "COc1cccc2c1C(=O)c1c(O)c3c(c(O)c1C2=O)C[C@@](O)(C(C)=O)C[C@@H]3O[C@H]1C[C@H](N)[C@H](O)[C@H](C)O1", "note": "[daunorubicin]", "values": [
      {"measurement": "inhibition index, LY294002", "setting": "A2058 cells; A2058 cells pretreated 30 min with LY294002 (15 μM)", "result": "100.7 ± 4.0", "unit": "%"},
      {"measurement": "inhibition index, wortmannin", "setting": "A2058 cells; A2058 cells pretreated 30 min with wortmannin (50 nM)", "result": "121.0 ± 8.1", "unit": "%"},
      {"measurement": "the ratio of apoptotic cells, Vitabright-48™", "setting": "A2058 melanoma cells", "result": "30.9 ± 0.68", "unit": "%"}
    ]}
  ]
}
